Results from patent US7893299B2, “Interleukin-1 and tumor necrosis factor-αmodulators; syntheses of such modulators and methods of using such modulators” (Nereus Pharmaceuticals, Inc., priority 2005, dated 2011).
Like-named read-outs stand apart in the source and are kept apart here.

Key:
RPMI 8226 (MM) = assay: 48 hr cytotoxicity, RPMI 8226; assay type: cell-based, human
Method: (§1) Human colon adenocarcinoma HT-29 (ATCC# HTB-38), prostate adenocarcinoma PC-3 (ATCC# CRL-1435), breast adenocarcinoma MDA-MB231 (ATCC# HTB-26), Multiple Myeloma RPMI 8226 (ATCC# CCL-155) and U266 (ATCC # TIB-196) cell lines and human normal fibroblast CCD-27sk (ATCC# CRL-1475) were all purchased from ATCC (Manassas, Va.). The cells were maintained in their respective ATCC recommended culture media at 37° C., 5% CO2 and 95% humidified air.
(§2) The cytotoxicity assays were performed by seeding individual cell lines at appropriate density in the 96 well flat-bottomed plates and allowed to attach for 24 hours at 37° C., 5% CO2 and 95% humidified air (RPMI 8226 and U266 cells were plated in 96 well plates on the day of compound addition). Serially diluted NPI-1387 was added in triplicate to cells at concentrations ranging from 160 nM to 20 μM. Final concentration of 0.25% (v/v) DMSO was used as the vehicle control. Cell viability was assessed 48 hours later by measuring the fluorescence of the reduction product of Resazurin by a Fusion microplate fluorometer (PerkinElmer) with λex=535 nm and λem=590 nm filters. The IC50 values (the drug concentration at which 50% of the maximal observed cytotoxicity is established) were calculated in XLFit 3.0 or XLFit 4.0 (ID Business Solutions Ltd) using a sigmoidal dose response model.

HT-29 (Colon) = assay: 48 hr cytotoxicity, HT-29; assay type: cell-based, human
Method: as §1, §2

[1] = tested on: CCD-27sk (human normal skin fibroblast); assay: 48 hr cytotoxicity, CCD-27sk; assay type: cell-based; details: 48 hr drug exposure
Method: as §1, §2

[2] = tested on: peripheral blood mononuclear cells; assay: viability of peripheral blood mononuclear cells from normal healthy donors; assay type: cell-based
Text: Besides nuclear condensation, NF-KB inhibitor triggered proteolytic cleavage of poly (ADP ribose) polymerase (PARP), a hallmark of apoptosis.

[3] = tested on: TNF-α induced nuclear factor-κB (NF-κB) activation; assay: HEK293 NF-κB/Luciferase reporter cell line; assay type: cell-based
[4] = tested on: NF-κB DNA binding activity; assay: NF-κB DNA binding activity, EMSA, PC-3; assay type: cell-based; details: TNF-α
[5] = tested on: IκBα and p38 MAP kinase phosphorylation; assay: LPS- or TNF-α-induced phosphorylation of IκBα and p38 MAP kinase in RPMI 8226 cells; assay type: cell-based; details: 13 μM
Method: One ml/well of 2×10^6/ml RPMI 8226 cells (#CCL-155C, American Type Culture Collection) were seeded in 6-well plate in LGM-3 medium and cultured for overnight at 37° C., 5% CO2 and 95% humidified air. Formula (IIB-A1) was added to RPMI 8226 cells at the final concentration of 13 μM for 1 hr. DMSO was used as a control. Cells were then either stimulated by LPS (50 ng/ml) or by TNF-α (10 ng/ml) for various length of time. At the end of each period of stimulation, cells were harvested by centrifugation and cell pellets were washed once in ice-cold 1× Dulbecco's Phosphate buffered Saline (DPBS). To prepare samples for SDS-PAGE, cells were lysed in RIPA buffer (50 mM Tris-HCl, pH7.4, 0.9% NaCl, 1% Triton X-100, 0.25% Na-deoxycholate, 1 mM EDTA, 2 mM Na3VO4 and 1× protease inhibitors cocktail) for 15 min on ice. Cell lysates were cleared by centrifugation at 14,000 rpm, 4° C. for 10 min. Protein concentrations of cell lysates were determined by BCA protein assay kit prior to SDS-PAGE. Equal amount of proteins from various cell lysates were resolved on 10% NuPage MES precast gels and transferred to nitrocellulose membranes according to the manufacturer's instructions. […]

IL-8 production = assay: LPS-stimulated IL-8 levels in RPMI 8226 cells (ELISA); assay type: cell-based, human; details: 20 μM to 0.16 μM
Method: Ninety μl of 2.8×10^5/ml and 0.5 ml of 5×10^5/ml RMPI 8226 cells (#CCL-155C, American Type Culture Collection) were seeded in 96-well and 6-well plate in LGM-3 medium, respectively. Cells were cultured overnight at 37° C., 5% CO2 and 95% humidified air. 8-point serial dilution of TTL3 or formula (IIB-A1) was added to cells for 1 hr at the final concentration ranging from 20 μM to 0.16 μM. DMSO was used as control. After 1 hr, 50 ng/ml of LPS diluted in LGM-3 medium from 1 mg/ml stock solution was added to stimulate the cells for additional 10 hr. Supernatants were collected and IL-8 and IL-10 levels were analyzed by using the human IL-8 and IL-10 cytoset ELISA kits.

LPS/D-Gal administration = assay: mortality after LPS/D-Gal administration; assay type: in vivo; details: i.p., TTL3 administration 45 minutes prior to LPS

SMILES: C=CC(=O)C1(C)CCCC2(C)C3=CCC(C)(C=C)C[C@@H]3CC[C@H]12 (stereo in doubt) [NPI-1387, 1-[(1S,4aS,7R)-1,4a,7-Trimethyl-7-vinyl-1,2,3,4,4a,6,7,8,8a,9,10,10a-dodecahydro-1-phenanthrenyl]-2-propen-1-one]
- IC50 (RPMI 8226 (MM)): 5.5 ± 0.8 µM
- IC50 (RPMI 8226 (MM); Homo sapiens, RPMI-8226, 48 h): 5.1 ± 1 µM
- IC50 (HT-29 (Colon)): 13 ± 6 µM
- IC50 (HT-29 (Colon); Homo sapiens, HT-29, 48 h): 14 ± 6 µM
- IC50 [1]: ≥ 20 µM
- toxicity against / change in viable peripheral blood mononuclear cells [2]: relatively minimal
- toxicity against / change in viable peripheral blood mononuclear cells ([2]; listed as NF-KB inhibitor): no significant toxicity
- TNF-α induced NF-κB activation [3]: reduced TNF-α induced nuclear factor-κB (NF-κB) activation
- NF-κB DNA binding activity [4]: inhibits the DNA binding activity of NF-κB in a dose-dependent manner

SMILES: C=C[C@@]1(C)CCC=C2[C@H]1CC[C@@H]1[C@](C)(C(=O)NC3CCCCC3)CCC[C@@]21C [Formula (IIB-A1), N-Cyclohexylamide Derivative of TTL]
- phosphorylation levels of IκBα and p38 MAP kinase induced by LPS and TNF-α in RPMI 8226 cells [5]: specifically inhibits LPS-induced phosphorylation of IκBα and p38 MAP kinase
- phosphorylation levels of IκBα and p38 MAP kinase induced by LPS and TNF-α in RPMI 8226 cells ([5]; listed as formula (IIB-A1)): specifically decreases LPS-induced phosphorylation of IκBα and p38 MAP kinase
- LPS-induced IL-8 production (IL-8 production): reduces LPS-induced IL-8 and IL-10 production in a dose-dependent manner
- LPS-induced IL-8 production (IL-8 production; listed as formula (IIB-A1)): inhibits the LPS-induced IL-8 and IL-10 production

SMILES: C=C[C@@]1(C)CCC=C2[C@H]1CC[C@@H]1[C@](C)(C(=O)OC)CCC[C@@]21C [TTL3]
- Mortality 24 hours (LPS/D-Gal administration): 2/10
- Mortality 48 hours (LPS/D-Gal administration): 2/10
